How the values were obtained:
SERT [1] = biological target: T1, SERT (Homo sapiens, UniProt P31645); assay: fluorescence-based serotonin uptake assay (Tsuruda et al. 2010); format: cell-based; settings: serotonin reuptake inhibition, fluorescence-based assay (data indicated by an asterisk); read-out: SERT pIC50 (converted)
Target sequence in this assay (P31645 whole entry, species assumed): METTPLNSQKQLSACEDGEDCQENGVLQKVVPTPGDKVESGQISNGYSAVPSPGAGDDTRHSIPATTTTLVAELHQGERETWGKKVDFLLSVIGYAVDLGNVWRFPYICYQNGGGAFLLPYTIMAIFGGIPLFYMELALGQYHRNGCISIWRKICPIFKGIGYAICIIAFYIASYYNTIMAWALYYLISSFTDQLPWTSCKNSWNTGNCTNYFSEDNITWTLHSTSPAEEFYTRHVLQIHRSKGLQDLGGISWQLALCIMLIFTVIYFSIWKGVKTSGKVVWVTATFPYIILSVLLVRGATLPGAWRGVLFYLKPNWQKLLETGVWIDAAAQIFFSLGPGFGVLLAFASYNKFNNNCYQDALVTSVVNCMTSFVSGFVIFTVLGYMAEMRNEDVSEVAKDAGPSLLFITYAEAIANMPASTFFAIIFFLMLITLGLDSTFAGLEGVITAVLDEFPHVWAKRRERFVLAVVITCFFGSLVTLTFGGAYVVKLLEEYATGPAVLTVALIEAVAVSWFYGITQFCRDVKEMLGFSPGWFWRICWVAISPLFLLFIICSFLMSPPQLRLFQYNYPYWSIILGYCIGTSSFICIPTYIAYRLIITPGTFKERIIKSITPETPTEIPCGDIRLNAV

NET [2] = biological target: T2, NET (Homo sapiens, UniProt P23975); assay: fluorescence-based norepinephrine uptake assay (Tsuruda et al. 2010); format: cell-based; settings: norepinephrine reuptake inhibition, fluorescence-based assay (data indicated by an asterisk); read-out: NET pIC50 (converted)
SERT [3] = biological target: T1, SERT; assay: hSERT membrane radioligand binding assay (3H-citalopram); set-up: expressed in transfected cells; host or cells: HEK-293; settings: hSERT membranes (HEK-293), 1.0 nM 3H-citalopram; for Ki: read-out: SERT pKi (converted)
Protocol: (§1) Membrane radioligand binding assays were used to measure inhibition of labeled ligand (^3H-citalopram or ^3H-nisoxetine or ^3H-WIN35428) binding to membranes prepared from cells expressing the respective human recombinant transporter (hSERT or hNET or hDAT) in order to determine the pKi values of test compounds at the transporters.
(§2) Recombinant human embryonic kidney (HEK-293) derived cell lines stably transfected with hSERT or hNET, respectively, were grown in DMEM medium supplemented with 10% dialyzed FBS (for hSERT) or FBS (for hNET), 100 μg/ml penicillin, 100 μg/ml streptomycin, 2 mM L-glutamine and 250 μg/ml of the aminoglycoside antibiotic G418, in a 5% CO2 humidified incubator at 37° C. When cultures reached 80% confluence, the cells were washed thoroughly in PBS (without Ca^2+ and Mg^2+) and lifted with 5 mM EDTA in PBS. Cells were pelleted by centrifugation, resuspended in lysis buffer (10 mM Tris-HCl, pH7.5 containing 1 mM EDTA), homogenized, pelleted by centrifugation, then resuspended in 50 mM Tris-HCl, pH 7.5 and 10% sucrose at 4° C. Protein concentration of the membrane suspension was determined using a Bio-Rad Bradford Protein Assay kit. Membranes were snap frozen and stored at −80° C. Chinese hamster ovary membranes expressing hDAT (CHO-DAT) were purchased from PerkinElmer and stored at −80° C.
(§3) Binding assays were performed in a 96-well assay plate in a total volume of 200 μl assay buffer (50 mM Tris-HCl, 120 mM NaCl, 5 mM KCl, pH 7.4) with 0.5, 1, and 3 μg membrane protein, for SERT, NET and DAT, respectively.
(§4) Stock solutions (10 mM in DMSO) of test compound were prepared and serial dilutions made using Dilution Buffer (50 mM Tris-HCl, 120 mM NaCl, 5 mM KCl, pH 7.4, 0.1% BSA, 400 μM ascorbic acid). Non-specific radioligand binding was determined in the presence of 1 μM duloxetine, 1 μM desipramine or 10 μM GBR12909 (each in Dilution Buffer) for the hSERT, hNET or hDAT assays, respectively.
(§5) Following a 60 minute incubation at 22° C. (or a period sufficient to reach equilibrium), the membranes were harvested by rapid filtration over a 96-well UniFilter GF/B plate, pretreated with 0.3% polyethyleneimine, and washed 6 times with […] (50 mM Tris-HCl, 0.9% NaCl, pH 7.5 at 4° C.). Plates were dried overnight at room temperature, approximately […] of MicroScint™-20 (Perkin Elmer) added and bound radioactivity quantitated via liquid scintillation spectroscopy. Inhibition curves and saturation isotherms were analyzed using GraphPad Prism Software package (GraphPad Software, Inc., San Diego, Calif.). IC50 values were generated from concentration response curves using the Sigmoidal Dose Response (variable slope) algorithm in Prism GraphPad. Kd and Bmax values for the radioligand were generated from saturation isotherms using the Saturation Binding Global Fit algorithm in Prism GraphPad. pKi (negative decadic logarithm of Ki) values for test compounds were calculated from the best-fit IC50 values, and the Kd value of the radioligand, using the Cheng-Prusoff equation (Cheng & Prusoff (1973) Biochem. Pharmacol. 22(23):3099-3108): Ki=IC50/(1+[L]/Kd), where [L]=concentration radioligand.
Target sequence in this assay (P31645 whole entry): as the sequence (P31645 whole entry, species assumed) above

NET [4] = biological target: T2, NET; assay: hNET membrane radioligand binding assay (3H-nisoxetine); set-up: expressed in transfected cells; host or cells: HEK-293; settings: hNET membranes (HEK-293), 1.0 nM 3H-nisoxetine; read-out: NET pKi (converted)
Protocol: as §1, §2, §3, §4, §5

T2 sequence (P23975 whole entry): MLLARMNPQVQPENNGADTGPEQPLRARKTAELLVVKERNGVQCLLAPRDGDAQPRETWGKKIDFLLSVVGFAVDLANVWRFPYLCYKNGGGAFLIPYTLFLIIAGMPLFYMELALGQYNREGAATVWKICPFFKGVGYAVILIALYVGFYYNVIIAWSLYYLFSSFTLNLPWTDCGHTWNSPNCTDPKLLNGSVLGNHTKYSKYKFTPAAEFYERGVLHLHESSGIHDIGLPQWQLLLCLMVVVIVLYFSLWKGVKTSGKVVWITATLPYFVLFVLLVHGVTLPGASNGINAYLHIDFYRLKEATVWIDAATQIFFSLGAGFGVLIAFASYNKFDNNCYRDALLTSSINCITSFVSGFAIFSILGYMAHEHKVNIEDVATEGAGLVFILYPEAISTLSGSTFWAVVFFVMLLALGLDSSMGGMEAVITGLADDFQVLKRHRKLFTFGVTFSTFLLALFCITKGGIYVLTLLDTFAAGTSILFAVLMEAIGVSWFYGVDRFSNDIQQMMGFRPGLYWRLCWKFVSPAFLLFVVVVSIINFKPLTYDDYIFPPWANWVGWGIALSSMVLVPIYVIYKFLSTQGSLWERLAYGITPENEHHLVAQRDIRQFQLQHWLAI

Row | Structure (SMILES) | IC50 (SERT [1]) | IC50 (NET [2]) | Ki (SERT [3]) | Ki (NET [4]) | SERT pKi (SERT [3])
1 | FC(F)(F)c1ccc(O[C@@H](C2CCOCC2)[C@H]2CCNC2)cc1 [Example 13-11, (S)-3-[(S)-(Tetrahydropyran-4-yl)(4-trifluoromethylphenoxy)methyl]pyrrolidine] | ≤ 10 nM | ≤ 100 nM | ≤ 10 nM | ≤ 100 nM | –
2 | Fc1cccc(O[C@H](C2CCOCC2)[C@@H]2CCNC2)c1 [Example 13-6, (R)-3-[(R)-(3-Fluorophenoxy)(tetrahydropyran-4-yl)methyl]pyrrolidine] | – | – | ≤ 100 nM | ≤ 10 nM | –
3 | CC(C)OC[C@H](Oc1cccc(Cl)c1C(F)(F)F)[C@@H]1CCNC1 [Example 9-18, (R)-3-[(R)-1-(3-Chloro-2-trifluoromethylphenoxy)-2-isopropoxyethyl]pyrrolidine] | ≤ 100 nM | ≤ 100 nM | ≤ 10 nM | ≤ 100 nM | –
4 | CC(C)OC[C@H](Oc1c(Cl)cccc1Cl)[C@@H]1CCNC1 [Example 9-27, (R)-3-[(R)-1-(2,6-Dichlorophenoxy)-2-isopropoxyethyl]pyrrolidine] | ≤ 1000 nM | ≤ 100 nM | ≤ 1000 nM | ≤ 1000 nM | –
5 | CC(C)OC[C@H](Oc1cccc(F)c1Cl)[C@@H]1CCNC1 [Example 9-10, (R)-3-[(R)-1-(2-Chloro-3-fluorophenoxy)-2-isopropoxyethyl]pyrrolidine] | ≤ 100 nM | ≤ 100 nM | ≤ 100 nM | ≤ 100 nM | –
6 | FC(F)(F)c1cccc(O[C@@H](C2CCOCC2)[C@H]2CCNC2)c1 [Example 13-8, (S)-3-[(S)-(Tetrahydropyran-4-yl)(3-trifluoromethylphenoxy)methyl]pyrrolidine] | – | – | ≤ 100 nM | ≤ 100 nM | –
7 | FC(F)(F)c1cc(Cl)ccc1O[C@H](C1CCOCC1)[C@@H]1CCNC1 [Example 13-23, (R)-3-[(R)-(4-Chloro-2-trifluoromethylphenoxy)(tetrahydropyran-4-yl)methyl]pyrrolidine] | – | – | ≤ 10 nM | ≤ 100 nM | –
8 | COCC(Oc1ccccc1Cl)C1CCNC1 (single isomer, unassigned) [Example 4-1, 3-[1-(2-Chlorophenoxy)-2-methoxyethyl]pyrrolidine] | – | – | ≤ 100 nM | ≤ 100 nM | –
9 | CC(C)OC[C@H](Oc1cccc(Cl)c1Cl)[C@@H]1CCNC1 [Example 9-6, (R)-3-[(R)-1-(2,3-Dichlorophenoxy)-2-isopropoxyethyl]pyrrolidine] | ≤ 100 nM | ≤ 100 nM | ≤ 10 nM | ≤ 100 nM | –
10 | COCC(Oc1ccccc1Cl)C1CCNC1 (single isomer, unassigned) [Example 4-2, 3-[1-(2-Chlorophenoxy)-2-methoxyethyl]pyrrolidine] | – | – | – | ≤ 10 nM | ≧7.0
11 | Clc1cccc(Cl)c1O[C@@H](C1CCOCC1)[C@@H]1CCNC1 [Example 13-27, (R)-3-[(S)-(2,6-Dichlorophenoxy)(tetrahydropyran-4-yl)methyl]pyrrolidine] | – | – | ≤ 100 nM | ≤ 10 nM | –
12 | Clc1cccc(Cl)c1O[C@H](C1CCOCC1)[C@@H]1CCNC1 [Example 13-26, (R)-3-[(R)-(2,6-Dichlorophenoxy)(tetrahydropyran-4-yl)methyl]pyrrolidine] | – | – | ≤ 100 nM | ≤ 10 nM | –
13 | COC[C@H](Oc1cccc(Cl)c1Cl)[C@@H]1CCNC1 [Example 4-8, (R)-3-[(R)-1-(2,3-Dichlorophenoxy)-2-methoxyethyl]pyrrolidine] | – | – | ≤ 10 nM | ≤ 100 nM | –
14 | COC[C@H](Oc1cccc(F)c1Cl)[C@H]1CCNC1 [Example 4-12, (S)-3-[(R)-1-(2-Chloro-3-fluorophenoxy)-2-methoxyethyl]pyrrolidine] | – | – | ≤ 100 nM | ≤ 10 nM | –
15 | CC(C)OC[C@H](Oc1ccc(Cl)cc1Cl)[C@@H]1CCNC1 [Example 9-22, (R)-3-[(R)-1-(2,4-Dichlorophenoxy)-2-isopropoxyethyl]pyrrolidine] | ≤ 10 nM | ≤ 1000 nM | ≤ 10 nM | ≤ 1000 nM | –
16 | Fc1cccc(O[C@@H](C2CCOCC2)[C@@H]2CCNC2)c1 [Example 13-5, (R)-3-[(S)-(3-Fluorophenoxy)(tetrahydropyran-4-yl)methyl]pyrrolidine] | – | – | ≤ 100 nM | ≤ 100 nM | –
17 | COC[C@H](Oc1cccc(C(F)(F)F)c1)[C@H]1CCNC1 [Example 4-3, (S)-3-[(R)-2-Methoxy-1-(3-trifluoromethylphenoxy)ethyl]pyrrolidine] | – | – | ≤ 100 nM | ≤ 100 nM | –
18 | COC[C@H](Oc1c(Cl)cccc1Cl)[C@H]1CCNC1 [Example 4-28, (S)-3-[(R)-1-(2,6-Dichlorophenoxy)-2-methoxyethyl]pyrrolidine] | – | – | ≤ 100 nM | ≤ 10 nM | –
19 | Clc1cccc(Cl)c1O[C@H](C1CCOCC1)[C@H]1CCNC1 [Example 13-25, (S)-3-[(R)-(2,6-Dichlorophenoxy)(tetrahydropyran-4-yl)methyl]pyrrolidine] | – | – | ≤ 100 nM | ≤ 100 nM | –
20 | CC(C)OC[C@H](Oc1cccc(C(F)(F)F)c1)[C@@H]1CCNC1 [Example 9-2, (R)-3-[(R)-2-Isopropoxy-1-(3-trifluoromethylphenoxy)ethyl]pyrrolidine] | ≤ 100 nM | ≤ 1000 nM | ≤ 100 nM | ≤ 10000 nM | –
21 | Clc1cc(Cl)cc(O[C@@H](C2CCOCC2)[C@H]2CCNC2)c1 [Example 13-28, (S)-3-[(S)-(3,5-Dichlorophenoxy)(tetrahydropyran-4-yl)methyl]pyrrolidine] | – | – | ≤ 10 nM | ≤ 100 nM | –
22 | Clc1ccccc1O[C@H](C1CCOCC1)[C@@H]1CCNC1 [Example 13-2, (R)-3-[(R)-(2-Chlorophenoxy)(tetrahydropyran-4-yl)methyl]pyrrolidine] | – | – | ≤ 100 nM | ≤ 10 nM | –
23 | COCC(Oc1ccc(Cl)cc1)C1CCNC1 (centres unmarked) [Example 4-4, 3-[1-(4-Chlorophenoxy)-2-methoxyethyl]pyrrolidine] | – | – | ≤ 10 nM | ≤ 100 nM | –
24 | Cc1c(Cl)cccc1O[C@@H](COC(C)C)[C@@H]1CCNC1 [Example 9-14, (R)-3-[(R)-1-(3-Chloro-2-methylphenoxy)-2-isopropoxyethyl]pyrrolidine] | ≤ 10 nM | ≤ 100 nM | ≤ 10 nM | ≤ 100 nM | –
25 | FC(F)(F)c1c(Cl)cccc1O[C@@H](C1CCOCC1)[C@@H]1CCNC1 [Example 13-21, (R)-3-[(S)-(3-Chloro-2-trifluoromethylphenoxy)(tetrahydropyran-4-yl)-methyl]-pyrrolidine] | – | – | ≤ 10 nM | ≤ 100 nM | –
26 | COCCC(Oc1ccc(Cl)cc1C)C1CCNC1 (single isomer, unassigned) [5 (1st peak)] | – | – | ≤ 10 nM | ≤ 100 nM | –
27 | COC[C@H](Oc1cccc(Cl)c1C)[C@@H]1CCNC1 [Example 4-17, (R)-3-[(R)-1-(3-Chloro-2-methylphenoxy)-2-methoxyethyl]pyrrolidine] | – | – | ≤ 10 nM | ≤ 100 nM | –
28 | COC[C@@H](Oc1c(Cl)cccc1Cl)[C@H]1CCNC1 [Example 4-27, (S)-3-[(S)-1-(2,6-Dichlorophenoxy)-2-methoxyethyl]pyrrolidine] | – | – | ≤ 100 nM | ≤ 100 nM | –
29 | FC(F)(F)c1c(Cl)cccc1OC(C1CCOCC1)C1CCNC1 [Example 13-18, (S)-3-[(S)-(3-Chloro-2-trifluoromethylphenoxy)(tetrahydropyran-4-yl)-methy]-pyrrolidine] | – | – | ≤ 10 nM | ≤ 100 nM | –
